According to US20230202995A1, “HIGH EFFICIENT SEX PHEROMONE LURES FOR ECTROPIS OBLIQUE AND ECTROPIS GRISESCENS” (CHANGZHOU UNIVERSITY, priority 2021, published 2023):

test system: E. oblique; assay: Field trapping test with sex pheromone lures in traps, tea plantation; type: in vivo, Ectropis oblique; conditions: lures with (3Z,6Z,9Z)-octadecatriene
Procedure: Embodiment 9: Field trapping tests were carried out at a tea plantation of Jintan Xinpin Tea Industry Co., Ltd., Changzhou City, Jiangsu Province. Sex pheromone lures used in the tests were made according to the schemes described in Embodiments 3-8, and a blank control was a lure made of n-hexane. The sex pheromone lure was used with a trap, each treatment process was repeated 3 times, and the number of trapped male pests in one month was counted.
(§1) Embodiment 50: Field trapping tests were carried out at the tea plantation of Jintan Xinpin Tea Industry Co., Ltd., Changzhou City, Jiangsu Province. Sex pheromone lures used in the test were made according to the schemes described in Embodiments 10-49, and a blank control was the lures made of n-hexane. The sex pheromone lures were used with a trap, each treatment process was repeated for 3 times, and the number of trapped insects in one month was counted.
as §1, with “53:” for “50:”, “51-52,” for “10-49,”, “in Embodiment 12.” for “of n-hexane.”, “lure was” for “lures were”, “repeated” for “repeated for”
as §1, with “54:” for “50:”, “Embodiment 12.” for “Embodiments 10-49, and a blank control was the lures made of n-hexane.”, “lure was” for “lures were”

SMILES	Trapping effect on E. oblique (in words)
CC/C=C\C/C=C\C[C@H]1O[C@H]1CCCCCCCC [(3Z,6Z,9R,10S)-9,10-epoxy-octadecadiene]	no trapping effect at all
CC/C=C\C/C=C\C[C@@H]1O[C@@H]1CCCCCCCC [(3Z,6Z,9S,10R)-9,10-epoxy-octadecadiene]	no trapping effect at all
CC/C=C\C[C@H]1O[C@H]1C/C=C\CCCCCCCC [(3Z,9Z,6R,7S)-6,7-epoxy-octadecadiene]	certain trapping capacity
CC/C=C\C[C@@H]1O[C@@H]1C/C=C\CCCCCCCC [(3Z,9Z,6S,7R)-6,7-epoxy-octadecadiene]	certain trapping capacity
CCCCCCCC/C=C\C/C=C\C[C@@H]1O[C@@H]1CC [(6Z,9Z,3R,4S)-3,4-epoxy-octadecadiene]	no trapping effect at all
CCCCCCCC/C=C\C/C=C\C[C@H]1O[C@H]1CC [(6Z,9Z,3S,4R)-3,4-epoxy-octadecadiene]	no trapping effect at all
